Experimental data: US8969516B2, “Method of hydrolysis of peptide bond” (priority 2006, dated 2015)

Assay: MALDI-TOF screening of Ni^2+ dependent hydrolysis in a combinatorial peptide library
Assay type: physicochemical
Conditions: Ni^2+ 2 mM, pH 8.2, 10 mM Tris, score=24/tm
From the text: The sequence CH3CO-Gly-Ala-Ser/Thr-X-His-Z-Lys-Phe-Leu-NH2 was designed so that the fixed R1 and R2 sequences, CH3CO-Gly-Ala, and Lys-Phe-Leu-NH2, respectively, allowed optimal detection by MALDI-TOF mass spectrometry of substrates as well as expected products, Ser/Thr-X-His-Z-Lys-Phe-Leu-NH2 and assured separation between the clusters of signals for substrates and products in sublibraries (see below).
Residues in position X included all amino acids commonly present in proteins, except for Asp, Glu, and Cys. The former two contain carboxylates in their side chains, which may bind Ni^2+ in a way which would quench or slow down the hydrolysis reaction. The Cys residue may do the same, and also may engage in side reactions with Ni^2+ ions, including redox processes (for example see Bal and Kasprzak, Toxicol. Lett. 2002, 127, 55-62). Only the Cys residue was eliminated from position Z, for the same reasons.
The synthesis of the library was accomplished on a RINK amide resin (Novabiochem) on a 800 mg scale, according to a typical Fmoc protocol (Fields, Meth. Enzymol. Vol. 289). The resin-attached Leu-Phe-Lys peptide was synthesised first and coupled with the isokinetic mixture of 19 amino acids selected for position Z, and then with the H is residue. The resin carrying the library of pentapeptides was divided into Ser and Thr halves at this stage, and each of these halves into 17 portions, which were coupled with individual amino acids selected for position X. The coupling with Ser or Thr as appropriate, additions of Ala and Gly residues, acetylation of Gly, deprotection and cleavage from the resin were accomplished subsequently. Each of the resulting 34 samples of sublibraries randomized at position X was separated into two portions, one for the reaction at 37° C. and another for the reaction at 45° C. The hydrolysis reactions were accomplished in 10 mM Tris buffers at pH 8.2. The total concentrations of peptide mixtures and Ni^2+ ions were 1 mM and 2 mM, respectively. The pH for the reaction was chosen as selective for highly reactive sequences.
The detection of reaction products was accomplished with the use of a MALDI-TOF mass spectrometer (Micromass). The aliquots were removed from reaction mixtures and measured by MS at 2, 4, 6, and 8 hours of incubation. The progress of reaction was evaluated by visual detection in mass spectra of appearance of signals corresponding to expected products of hydrolysis, Ser/Thr-X-His-Z-Lys-Phe-Leu-NH2, at given measurement times, tm. […] Also the decrease of signals of substrates was controlled in these cases.
Residues X and Z were then sorted according to various molecular parameters, describing their physical properties (Carugo, In Silico Biol. 2003, 3, 0035). […] The Ser library provided a higher number of reactive peptides than the Thr library. Following the additivity of effects, the scores were also summed up in lines and columns of Table 1A-D, thereby creating final rankings for preferred substitutions in positions X and Z.

[1] = CH3CO-Gly-Ala-Thr-X-His-Z-Lys-Phe-Leu-NH2 library, 37° C.
[2] = CH3CO-Gly-Ala-Thr-X-His-Z-Lys-Phe-Leu-NH2 library, 45° C.
[3] = CH3CO-Gly-Ala-Ser-X-His-Z-Lys-Phe-Leu-NH2 library, 37° C.
[4] = CH3CO-Gly-Ala-Ser-X-His-Z-Lys-Phe-Leu-NH2 library, 45° C.

| Substance | hydrolysis score from MALDI-TOF screening [1] | hydrolysis score from MALDI-TOF screening [2] | hydrolysis score from MALDI-TOF screening [3] | hydrolysis score from MALDI-TOF screening [4] |
| --- | --- | --- | --- | --- |
| Ac-GATVHHKFL-NH2 [TVHH] | 0 (a score of 0 if no trace of the product of hydrolysis was seen after 8 hours of incubation) | 0 (a score of 0 if no trace of the product of hydrolysis was seen after 8 hours of incubation) | – | – |
| Ac-GASYHNKFL-NH2 [SYHN] | – | – | 0 (a score of 0 if no trace of the product of hydrolysis was seen after 8 hours of incubation) | 0 (a score of 0 if no trace of the product of hydrolysis was seen after 8 hours of incubation) |
| Ac-GASKHEKFL-NH2 [SKHE] | – | – | 0 (a score of 0 if no trace of the product of hydrolysis was seen after 8 hours of incubation) | 3 (a score of 3 for detection at 8 hours) |
| Ac-GATFHVKFL-NH2 [TFHV] | 0 (a score of 0 if no trace of the product of hydrolysis was seen after 8 hours of incubation) | 0 (a score of 0 if no trace of the product of hydrolysis was seen after 8 hours of incubation) | – | – |
| Ac-GATMHSKFL-NH2 [TMHS] | 0 (a score of 0 if no trace of the product of hydrolysis was seen after 8 hours of incubation) | 0 (a score of 0 if no trace of the product of hydrolysis was seen after 8 hours of incubation) | – | – |
| Ac-GATAHVKFL-NH2 [TAHV] | 0 (a score of 0 if no trace of the product of hydrolysis was seen after 8 hours of incubation) | 0 (a score of 0 if no trace of the product of hydrolysis was seen after 8 hours of incubation) | – | – |
| Ac-GATMHGKFL-NH2 [TMHG] | 0 (a score of 0 if no trace of the product of hydrolysis was seen after 8 hours of incubation) | 0 (a score of 0 if no trace of the product of hydrolysis was seen after 8 hours of incubation) | – | – |
| Ac-GASFHMKFL-NH2 [SFHM] | – | – | 0 (a score of 0 if no trace of the product of hydrolysis was seen after 8 hours of incubation) | 3 (a score of 3 for detection at 8 hours) |
| Ac-GATKHGKFL-NH2 [TKHG] | 0 (a score of 0 if no trace of the product of hydrolysis was seen after 8 hours of incubation) | 0 (a score of 0 if no trace of the product of hydrolysis was seen after 8 hours of incubation) | – | – |
| Ac-GATHHFKFL-NH2 [THHF] | 0 (a score of 0 if no trace of the product of hydrolysis was seen after 8 hours of incubation) | 6 (a score of 6 for detection at 4 hours) | – | – |
| Ac-GATPHEKFL-NH2 [TPHE] | – | 0 (a score of 0 if no trace of the product of hydrolysis was seen after 8 hours of incubation) | – | – |
| Ac-GATQHVKFL-NH2 [TQHV] | 0 (a score of 0 if no trace of the product of hydrolysis was seen after 8 hours of incubation) | 0 (a score of 0 if no trace of the product of hydrolysis was seen after 8 hours of incubation) | – | – |
| Ac-GASGHAKFL-NH2 [SGHA] | – | – | 0 (a score of 0 if no trace of the product of hydrolysis was seen after 8 hours of incubation) | 0 (a score of 0 if no trace of the product of hydrolysis was seen after 8 hours of incubation) |
| Ac-GASFHKKFL-NH2 [SFHK] | – | – | 4 (a score of 4 for detection at 6 hours) | 6 (a score of 6 for detection at 4 hours) |
| Ac-GATPHWKFL-NH2 [TPHW] | – | 0 (a score of 0 if no trace of the product of hydrolysis was seen after 8 hours of incubation) | – | – |
| Ac-GASVHRKFL-NH2 [SVHR] | – | – | 3 (a score of 3 for detection at 8 hours) | 3 (a score of 3 for detection at 8 hours) |
| Ac-GASRHGKFL-NH2 [SRHG] | – | – | 3 (a score of 3 for detection at 8 hours) | 6 (a score of 6 for detection at 4 hours) |
| Ac-GASGHVKFL-NH2 [SGHV] | – | – | 0 (a score of 0 if no trace of the product of hydrolysis was seen after 8 hours of incubation) | 3 (a score of 3 for detection at 8 hours) |
| Ac-GATFHHKFL-NH2 [TFHH] | 0 (a score of 0 if no trace of the product of hydrolysis was seen after 8 hours of incubation) | 0 (a score of 0 if no trace of the product of hydrolysis was seen after 8 hours of incubation) | – | – |
| Ac-GASVHTKFL-NH2 [SVHT] | – | – | 0 (a score of 0 if no trace of the product of hydrolysis was seen after 8 hours of incubation) | 0 (a score of 0 if no trace of the product of hydrolysis was seen after 8 hours of incubation) |
| Ac-GATFHGKFL-NH2 [TFHG] | 0 (a score of 0 if no trace of the product of hydrolysis was seen after 8 hours of incubation) | 0 (a score of 0 if no trace of the product of hydrolysis was seen after 8 hours of incubation) | – | – |
| Ac-GASWHFKFL-NH2 [SWHF] | – | – | 3 (a score of 3 for detection at 8 hours) | 4 (a score of 4 for detection at 6 hours) |
| Ac-GATFHMKFL-NH2 [TFHM] | 0 (a score of 0 if no trace of the product of hydrolysis was seen after 8 hours of incubation) | 0 (a score of 0 if no trace of the product of hydrolysis was seen after 8 hours of incubation) | – | – |
| Ac-GATQHTKFL-NH2 [TQHT] | 0 (a score of 0 if no trace of the product of hydrolysis was seen after 8 hours of incubation) | 0 (a score of 0 if no trace of the product of hydrolysis was seen after 8 hours of incubation) | – | – |
| Ac-GATHHEKFL-NH2 [THHE] | 0 (a score of 0 if no trace of the product of hydrolysis was seen after 8 hours of incubation) | 0 (a score of 0 if no trace of the product of hydrolysis was seen after 8 hours of incubation) | – | – |
| Ac-GASTHPKFL-NH2 [STHP] | – | – | 0 (a score of 0 if no trace of the product of hydrolysis was seen after 8 hours of incubation) | 0 (a score of 0 if no trace of the product of hydrolysis was seen after 8 hours of incubation) |
| Ac-GASWHDKFL-NH2 [SWHD] | – | – | 0 (a score of 0 if no trace of the product of hydrolysis was seen after 8 hours of incubation) | 0 (a score of 0 if no trace of the product of hydrolysis was seen after 8 hours of incubation) |
| Ac-GATMHAKFL-NH2 [TMHA] | 0 (a score of 0 if no trace of the product of hydrolysis was seen after 8 hours of incubation) | 0 (a score of 0 if no trace of the product of hydrolysis was seen after 8 hours of incubation) | – | – |
| Ac-GASGHLKFL-NH2 [SGHL] | – | – | 0 (a score of 0 if no trace of the product of hydrolysis was seen after 8 hours of incubation) | 3 (a score of 3 for detection at 8 hours) |
| Ac-GASAHVKFL-NH2 [SAHV] | – | – | 0 (a score of 0 if no trace of the product of hydrolysis was seen after 8 hours of incubation) | 3 (a score of 3 for detection at 8 hours) |
